Experimental data published in US9375436B2, “Androgen treatment in females” (priority 2004, dated 2016).
“Also recorded” adds a separate entry of the source.

How the values were obtained:
[1] = system: women with diminished ovarian reserve; experiment: Gender of offspring and embryos conceived on DHEA treatment (Example 6); format: in vivo, human
Protocol: The treatment protocol for long-term supplementation with DHEA that may improve oocyte and embryo quantity, quality, pregnancy rates and time to conception in women with diminished ovarian reserve, involves 25 mg of micronized, pharmaceutical grade DHEA, TID will usually uniformly raise levels of unconjugated DHEA above about 350 ng/dl, and, therefore, raise baseline testosterone. Estradiol baseline levels may also be raised.
A total of 19 pregnancies were recorded with 16 singleton and 3 twin pregnancies. The medical records of all 19 women were reviewed in order to determine whether they conceived spontaneously, defined as including pregnancies conceived with intrauterine inseminations, or by IVF. If conception had occurred by IVF, it was recorded whether fertilization was spontaneous or by intracytoplasmic sperm injection (ICSI).
As a control group, seven women were selected who had undergone one IVF cycle with preimplantation genetic diagnosis (PGD), while for at least 60 days on DHEA supplementation, but had not conceived. The PGD data, defining each embryo's gender, were recorded. Statistics were performed using a binomial runs test, comparing seen distributions with an expected distribution of 50 percent, with p≦0.05 defining significance.

[2] = system: women with diminished ovarian reserve; experiment: AMH as reflection of ovarian reserve after DHEA supplementation (Examples 9 and 12); format: in vivo, human
Protocol: The study is a cross-sectional analysis of 120 consecutive women with DOR in whom AMH levels were evaluated as a reflection of OR. They presented during 2007/8 to our center for initial infertility consultation. First AMH levels obtained were used for INITIAL analysis. Post DHEA initiation, exposure to the supplement ranged from 34 to 119 days (mean 73±27 days). Women with two or more consecutive AMH levels comprised patients in the longitudinal study evaluation of OR after initiation of DHEA supplementation. […]
FSH and estradiol were evaluated by standard enzyme-linked immunoabsorbent assay (ELISA; AIA-600II, Tohso, Tokyo, Japan). […] Theoretical sensitivity, or minimum detection limit, as calculated by interpolation of the mean plus two standard deviations (SD) of eight replicates of the 0 ng/ml MIS/AMH Standard, is 0.006 ng/ml. […]
Data are shown as means±standard deviation (SD) or as raw numbers and percentages. […] Demographic and biochemical data were analyzed with paired or unpaired Student's t-test. […]
The study is a cross-sectional and longitudinal analysis of 120 consecutive women with diminished ovarian reserve, in whom AMH concentrations were evaluated as a reflection of ovarian reserve. […]
FSH and oestradiol were evaluated by standard enzyme-linked immunoabsorbent assay (ELISA; AIA-600II, Tohso, Tokyo, Japan). […]

[3] = Side effects and complications of DHEA supplementation; format: in vivo, human
Protocol: We maintained in all studies and treatment protocols the oral medication dosage of about 25 mg TID (three times a day for a total of about 75 mg per day), used by our index patient. […] Studies to determine best dosaging of DHEA in the treatment of DOR have so far not been performed.
Ovarian stimulation was identical for study and control groups and comprised microdose agonist flare, followed by maximal dosage gonadotropin stimulation, using about 300-450 IU of FSH and about 150 IU of HMG. Study patients received DHEA continuously until a positive pregnancy test was obtained or until the patient dropped out of treatment. DHEA and DHEAS levels were monitored monthly, and patients were interviewed at each visit about adverse reactions to DHEA supplementation.

[4] = system: patients with prior clomiphene citrate failures; details: 47 patients, 75 mg daily DHEA at least 60 days prior to inseminations; cited from earlier work
[5] = 15 offspring of pregnancies achieved through IVF
[6] = 53 embryos from 17 IVF cycles, women on DHEA, all ICSI
[7] = sixteen singleton pregnancies conceived on DHEA for at least 60 days

## C[C@]12CC[C@H](O)CC1=CC[C@@H]1[C@@H]2CC[C@]2(C)C(=O)CC[C@@H]12 [DHEA, Dehydroepiandrosterone]
[1]; [5]
  female offspring: 3
  male offspring: 12
[1]; [6]
  female embryos by PGD: 26
  male embryos by PGD: 27
[1]; singletons plus twins
  female offspring, final gender distribution: 6
  male offspring, final gender distribution: 15
[1]; [7]
  female offspring: 5
  male offspring: 11
[2]; 55 women who reached IVF, 13 conceived
  clinical pregnancy rate: 23.64%
[2]; longitudinal evaluation, n=55, baseline before DHEA 0.22±0.22, DHEA 25 mg TID
  AMH at highest measured peak: 0.35 ± 0.03 ng/mL
[3]; oral DHEA about 25 mg TID
  side effects: small and primarily relate to androgen effects; also recorded: mild transient acne on the face, chest or back, oily skin and mild hair loss; also recorded: appears safe and results in only minor side effects; also recorded: limited to oily skin, rarely mild acne vulgaris and mild hair loss
[3]; over 1,000 patients supplemented with DHEA
  complications: not encountered even a single complication of serious clinical significance
[4]
  live births: 21.3%
  pregnancy rate: 29.8%
